Measured values: US12377066B2, “Treatment of diseases associated with biliary system destruction” (Assistance Publique-Hopitaux de Paris, priority 2018, dated 2025)
Entries after “also recorded” stand apart in the source; their conditions may differ.

Legend:
PPARα = assay type: in vivo; conditions: Vps15 LKO mice, two weeks
Experimental: All animals used in the study were fed ad libitum standard chow diet (Teklad global protein diet; 20% protein, 75% carbohydrate, 5% fat) and kept under 12 h/12 h (8 am/8 pm) light on/off cycle. Animals were sacrificed between 2-4 pm unless indicated. […] Plasmatic TG, Billirubin, Hydroxybutyrate, AST and ALAT activities were measured enzymatically using Olympus AU 400 apparatus.
Total RNA was isolated from liver tissue using RNAeasy Lipid Tissue Mini Kit (Qiagen). Single-strand complementary DNA was synthesized from 1 μg of total RNA using 125 ng of random hexamer primers and SuperScript II (Life Technologies). RT-qPCR was performed on MX3005P instrument (Agilent) using a Brilliant III Ultra-Fast QPCR Master Mix (Agilent). The relative amounts of the mRNAs studied were determined by means of the 2^−ΔΔCT method, with pinin, S18, cyclophilin, eIF2α, HUS, Ubiquitin as reference genes for studies in mice and pinin for studies in human patient samples.

Vps15 LKO mice [1] = experiment: Histological analyses of liver tissue (hematoxylin/eosin, Sirius Red) in treated control and Vps15 LKO mice; assay type: in vivo; conditions: two weeks
From the text: (§1) The Vsp15 conditional mutant mouse line was established at the MCI/ICS (Mouse Clinical Institute—Institute Clinique de la Souris, Illkirch, France) as described (Nemazanyy, I. et al. Defects of Vps15 in skeletal muscles lead to autophagic vacuolar myopathy and lysosomal disease. EMBO Mol. Med. (2013). Liver specific Vps15 knockout mouse line was generated as described (Nemazanyy I et al., Class III PI3K regulates organismal glucose homeostasis by providing negative feedback on hepatic insulin signalling. Nat Commun. 2015 Sep. 21; 6:8283.). Mice were housed in specific pathogen-free conditions. Male mice (5-8-week-old) were used for the experimentation. Mice were randomly allocated to experimental groups and at least three animals were used for each condition (as indicated in figure legends) to ensure statistics analyses. Animal numbers were chosen to reflect the expected magnitude of response that takes into account the variability observed in previous experiments. All animal studies were approved by the Direction Départementale des Services Vétérinaires, Prefecture de Police, Paris, France (authorization number 75-1313) and the ethical committee of Paris Descartes University (17-052).
(§2) All animals used in the study were fed ad libitum standard chow diet (Teklad global protein diet; 20% protein, 75% carbohydrate, 5% fat) and kept under 12 h/12 h (8 am/8 pm) light on/off cycle. Animals were sacrificed between 2-4 pm unless indicated. […] For 5-bromo-2′deoxyuridine (BrdU) incorporation, mice were treated with BrdU (3 mg/ml, Sigma-Aldrich) dissolved in drinking water for 3 days before sacrifice. […]. For immunohistochemical analysis liver tissue was fixed overnight in phosphate-buffered 10% formalin and embedded in paraffin. […] sections were cut and processed either for staining with eosin/hematoxylin, Sirius Red or for immunohistochemical analyses. Plasmatic TG, Billirubin, Hydroxybutyrate, AST and ALAT activities were measured enzymatically using Olympus AU 400 apparatus.
For immunohistochemical analysis, liver tissue was fixed overnight in phosphate-buffered 10% formalin and embedded in paraffin. 4 μm sections were cut and processed either for staining with eosin/hematoxylin or for immunohistochemical analyses. Post-staining analyses were performed on digitalized with the NanoZoomer S210 (Hamamatsu) liver tissue slices. Immunohistochemistry of liver tissue sections was performed using anti-p62 (Abnova), anti-TROMA-III-s (DSHB), anti-cytokeratin (AbCyst) or with anti-Lamp1 (Abcam) antibodies.

Vps15 LKO mice [2] = experiment: Immunoblot analyses of total protein liver extracts (Lamp1, Lamp2, p62, LC3, FABP1) of treated mice; assay type: in vivo; conditions: two weeks
From the text: as §1, §2
To prepare protein extract for immunoblot analysis, liver tissue was homogenized in lysis buffer containing 20 mM Tris-HCl (pH 8.0), 5% glycerol, 138 mM NaCl, 2.7 mM KCl, 1% NP-40, 20 mM NaF, 5 mM EDTA, 1× protease inhibitors (Roche), 1× PhosphoStop Inhibitors (Roche). Homogenates were spun at 12000×g for 10 min at 4° C. Protein extracts were resolved by SDS-PAGE before transfer onto PVDF membrane followed by incubation with the primary antibodies and HRP-linked secondary antibodies. Immobilon Western Chemiluminescent HRP Substrate (Millipore) was used for the detection. The images were acquired using ChemiDocTouch Imaging System (BioRad) and the quantification performed using ImageJ software.

Vps15 LKO mice [3] = experiment: Plasma biochemical analyses (TG, ALAT, AST) and spleen weight to body weight ratio in treated mice; assay type: in vivo; conditions: two weeks
From the text: as §1, §2

Vps15 LKO mice [4] = experiment: Targeted metabolomics of acyl-carnitine fatty acid species in liver tissue of treated mice; assay type: in vivo; conditions: two weeks
From the text: as §1, §2
Targeted metabolomics analyses were performed on liver tissue extracts obtained with solution of 50% methanol, 30% ACN, and 20% water. The volume of extraction solution added was calculated from weight of powdered tissue (60 mg/ml). After addition of extraction solution, samples were vortexed for 5 min at 4° C., and then centrifuged at 16,000×g for 15 min at 4° C. The supernatants were collected and analysed by liquid chromatography-mass spectrometry using SeQuant ZIC-pHilic column (Merck) for the liquid chromatography separation. Mobile phase A consisted of 20 mM ammonium carbonate plus 0.1% ammonia hydroxide in water. Mobile phase B consisted of ACN. The flow rate was kept at […], and the gradient was 0 min, 80% of B; 30 min, 20% of B; 31 min, 80% of B; and 45 min, 80% of B. The mass spectrometer (QExactive Orbitrap, Thermo Fisher Scientific) was operated in a polarity switching mode and metabolites were identified using TraceFinder Software (Thermo Fisher Scientific). For analyses, metabolomics data were normalized using the median normalization method. MetaboAnalyst 4.0 software was used for heatmaps generation. The algorithm for heatmap clustering was based on the Pearson distance measure for similarity and the Ward linkage method for biotype clustering.

BA patients = conditions: large clinical use during many years, no controlled studies; cited from earlier work
[5] = Vps15 LKO mice, drug incorporated in food
[6] = Vps15 LKO mice, drug incorporated in food, listed as BEZA
[7] = Vps15 LKO mice, once per day by oral gavage
[8] = Vps15 LKO mice, once per day by oral gavage, listed as FENO
[9] = control mice, fenofibrate incorporated in food

## CC(C)(Oc1ccc(CCNC(=O)c2ccc(Cl)cc2)cc1)C(=O)O [bezafibrate, 2-(4-(2-((4-chlorobenzoyl)amino)ethyl)phenoxy)-2-methylpropanoic acid]
PPARα; drug incorporated in food (fenofibrate 200 mg/kg or bezafibrate 0.5%)
  PPARα transcriptional activity in liver (transcript levels of PPARα target genes): equally efficient in restoring PPARα transcriptional activity; also recorded: restoration of PPARα function
PPARα; drug incorporated in food
  liver inflammation (transcript levels of TNF1α, IL1β, F4/80): effective in reducing the inflammation
Vps15 LKO mice [1]; [5]
  hepatocyte volume (histology): reduce hepatocyte volume
Vps15 LKO mice [1]; [6]
  hepatocyte vacuolation (hematoxylin/eosin): sufficient to decrease hepatocyte vacuolation; also recorded: rescues hepatocyte vacuolation
  portal area organization / architecture of intrahepatic biliary system (histology): improve the portal area organization; also recorded: ameliorates architecture of intrahepatic biliary system
Vps15 LKO mice [2]; [5]
  LC3 lipidation (LC3-II form) in liver (immunoblot): promoted LC3-lipidation
  accumulation of Lamp proteins (Lamp1, Lamp2) in liver (immunoblot): reduced
  autophagic clearance in liver: promoted autophagic clearance
  p62 protein levels in liver (immunoblot): reduction of p62 accumulation
  protein expression of PPARα target Fabp1 in liver (immunoblot): equally effective in restoring
Vps15 LKO mice [2]; [6]
  LC3 lipidation (LC3-II form) in liver (immunoblot): increased lipidation of LC3
  accumulation of Lamp proteins (Lamp1, Lamp2) in liver (immunoblot): decreased Lamp1 and p62 protein levels
  p62 protein levels in liver (immunoblot): decreased Lamp1 and p62 protein levels
Vps15 LKO mice [3]; [5]
  liver damage: activity of transaminases (ALAT, AST) in plasma: fenofibrate, independently of mode of administration, was more effective in lowering liver damage compared to bezafibrate treatment
  spleen hypertrophy (ratio of spleen weight to body weight): decreasing spleen hypertrophy
  triglyceride (TG) levels in plasma: effective in lowering TG levels
Vps15 LKO mice [4]; drug incorporated in food
  fatty acid oxidation in liver (metabolomics): marked restoration of fatty acid oxidation
  levels of long-chain fatty acid carnitines in liver: decreased levels of long-chain fatty acid carnitines
  levels of short-chain fatty acid carnitines in liver: increased levels of short-chain fatty acid carnitines
Vps15 LKO mice [4]; drug incorporated in food, listed as BEZA
  fatty acid oxidation in liver (metabolomics): sufficient to restore the metabolic activity such as fatty-acid oxidation

## CC(C)OC(=O)C(C)(C)Oc1ccc(C(=O)c2ccc(Cl)cc2)cc1 [fenofibrate, 2-{4-[(4-chlorophenyl)carbonyl]phenoxy}-2-méthylpropanoatede propan-2-yle]
Vps15 LKO mice [1]; [5]
  hepatocyte vacuolation (hematoxylin/eosin): significantly decrease hepatocyte vacuolation; also recorded: rescues hepatocyte vacuolation
  hepatocyte volume (histology): reduce hepatocyte volume
  inflammatory cell infiltration in liver (histology): reduce hepatocyte volume and inflammatory cell infiltration
  liver fibrosis / collagen deposition (quantification of Sirius Red staining): lower; also recorded: decreased
  portal area organization / architecture of intrahepatic biliary system (histology): effective in improving the portal area organization; also recorded: ameliorates architecture of biliary system
Vps15 LKO mice [1]; [7]
  hepatocyte volume (histology): reduce hepatocyte volume
Vps15 LKO mice [1]; [8]
  hepatocyte vacuolation (hematoxylin/eosin): sufficient to decrease hepatocyte vacuolation; also recorded: rescues hepatocyte vacuolation
  portal area organization / architecture of intrahepatic biliary system (histology): improve the portal area organization; also recorded: ameliorates architecture of intrahepatic biliary system
Vps15 LKO mice [1]; [9]
  hepatocyte hypertrophy (histology): resulted in hepatocyte hypertrophy
Vps15 LKO mice [2]; [5]
  LC3 lipidation (LC3-II form) in liver (immunoblot): induced an important lipidation of LC3 protein; also recorded: promoted LC3-lipidation
  accumulation of Lamp proteins (Lamp1, Lamp2) in liver (immunoblot): significantly ameliorated; also recorded: significantly reverted
  autophagic clearance in liver: promotes autophagic clearance
  p62 protein levels in liver (immunoblot): significantly ameliorated; also recorded: decreased levels of p62 protein
Vps15 LKO mice [2]; [7]
  LC3 lipidation (LC3-II form) in liver (immunoblot): promoted LC3-lipidation
  accumulation of Lamp1 protein in liver (immunoblot): reduced
  autophagic clearance in liver: promoted autophagic clearance
  p62 protein levels in liver (immunoblot): reduction of p62 accumulation
  protein expression of PPARα target Fabp1 in liver (immunoblot): equally effective in restoring
Vps15 LKO mice [2]; [8]
  LC3 lipidation (LC3-II form) in liver (immunoblot): increased lipidation of LC3
  accumulation of Lamp1 protein in liver (immunoblot): decreased Lamp1 and p62 protein levels
  p62 protein levels in liver (immunoblot): decreased Lamp1 and p62 protein levels
Vps15 LKO mice [2]; [9]
  LC3 lipidation (LC3-II form) in liver (immunoblot): induced an important lipidation of LC3 protein; also recorded: promoted LC3-lipidation
Vps15 LKO mice [3]; [5]
  liver damage: activity of transaminases (ALAT, AST) in plasma: significantly decreased activity of transaminases; also recorded: more effective in lowering liver damage compared to bezafibrate; also recorded: significantly ameliorates liver damage
  triglyceride (TG) levels in plasma: resulted in their normalization; also recorded: effective in lowering TG levels; also recorded: beneficial effect in lowering plasmatic triglycerides
Vps15 LKO mice [3]; [7]
  triglyceride (TG) levels in plasma: effective in lowering TG levels
Vps15 LKO mice [3]; [9]
  triglyceride levels in plasma: effective in lowering triglyceride levels
Vps15 LKO mice [4]; once per day by oral gavage
  fatty acid oxidation in liver (metabolomics): marked restoration of fatty acid oxidation
  levels of long-chain fatty acid carnitines in liver: decreased levels of long-chain fatty acid carnitines
  levels of short-chain fatty acid carnitines in liver: increased levels of short-chain fatty acid carnitines
Vps15 LKO mice [4]; once per day by oral gavage, listed as FENO
  fatty acid oxidation in liver (metabolomics): sufficient to restore the metabolic activity such as fatty-acid oxidation

## desoxycholic acid [UDCA]
BA patients
  prognosis of patients (% of liver transplantation or survival): provided no evidence that it might positively affect prognosis of the patients
